“Also recorded” adds a separate entry of the source. Like-named read-outs stand apart in the source and are kept apart here.
Experiments:
HCV genotype 1 [1] = conditions: 400 mg thrice daily for 14 days with pegylated interferon alfa-2b, previous nonresponders; cited from earlier work
HCV genotype 1 [2] = conditions: 400 mg thrice daily, 14 days monotherapy, nonresponders to pegylated interferon alfa; cited from earlier work
Pichinde virus = Pichinde virus in guinea pigs; cited from earlier work
thymocyte and lymphocyte = conditions: in vitro; cited from earlier work
[3] = system: 5-FU-immune-suppressed animals; conditions: cited from earlier work
spleen lymphocytes = conditions: cited from earlier work
[4] = system: Th1 cytokines IFN-g and IL-2, Th2 cytokines IL-4 and IL-10; conditions: cited from earlier work
STAT-3 = conditions: cited from earlier work
[5] = system: genotype 1 chronic HCV infection; test: Phase 2a dose ranging study of SCV-07: HCV viral load; assay type: in vivo, human
Text: (§1) Here we describe interim results from a phase 2a, proof of principle, multicenter, randomized, controlled, single-blind dose ranging study, which is evaluating the safety and antiviral effect of SCV-07 in non-cirrhotic subjects with genotype 1 chronic HCV infection. Subjects enrolled in the study must have relapsed to previous treatment with PEGylated interferon and ribavirin; therefore any change in HCV viral load of greater than 0.5 log could be considered a significant response.
(§2) Subjects are treated with 7 daily injections of SCV-07 (8 subjects per cohort) or saline (2 per cohort). […] Due to this apparent late response, a 30-day follow up visit was added for Cohort 3. Of the 4 subjects in this Cohort who have reached the 30-day visit, one has responded with a 1.2-log drop in HCV along with an increase in neopterin (see Table1).

bone marrow cells = conditions: cited from earlier work
neopterin = test: Phase 2a dose ranging study of SCV-07: plasma biomarker neopterin; assay type: in vivo, human; conditions: Cohort 3, 1.0 mg/kg (interim); single responding subject
Text: as §1, §2
A plasma concentration of neopterin above 10 nmol/L represents a “stimulated” immune system. […] Increased levels of neopterin also are correlated with increased sustained viral responses against HCV, and so is very strong evidence for the use of SCV-07 in this disease. The timing of the increase is also of interest.

sheep red blood cells = conditions: immunization with sheep red blood cells; cited from earlier work
[6] = system: Cottontail papilloma virus; conditions: Cottontail papilloma virus in rabbits; cited from earlier work
herpes virus HSV-2 = conditions: guinea pigs infected with herpes virus HSV-2; cited from earlier work
HCV [7] = test: Combination treatment of hepatitis C patients, Examples 2-4; assay type: in vivo, human; conditions: Example 4: 0.1-2.0 mg/kg/day with STAT-C and/or ribavirin and/or pegylated interferon alpha-2b or alpha-2a, up to 48 weeks
Text: Treatment, as in the examples above, results in achieving a sustained virological response (SVR) (which is accepted as cure and used as the efficacy endpoint for FDA approval), of 65-75%. This compares favorably with the current SOC SVR of 45-50%. This improved SVR is achieved in a regimen that has much less toxicity when compared to SOC (interferon sparing).

[8] = Phase 2a dose ranging study of SCV-07: safety and tolerability; assay type: in vivo, human
Text: as §1, §2
Further clinical investigation into longer treatment duration or addition to other anti-viral agents appears warranted.

HCV genotype 1 [9] = conditions: cited from earlier work
HCV genotype 1 [10] = conditions: 1500-mg twice-daily, 14 days, treatment-naive; cited from earlier work
HCV [11] = conditions: higher doses (500-1500 mg/day); cited from earlier work
HCV [12] = conditions: within 5 days of therapy; cited from earlier work
HCV [13] = conditions: cited from earlier work
[14] = 1500 mg twice daily for 14 days
[15] = 3000 mg twice daily for 14 days
[16] = 4500 mg twice daily for 14 days

## CC(C)(C)NC(=O)N[C@H](C(=O)N1C[C@H]2[C@@H]([C@H]1C(=O)NC(CC1CCC1)C(=O)C(N)=O)C2(C)C)C(C)(C)C (stereo partly shown) [SCH503034]
HCV genotype 1 [1]
  reduction in HCV RNA: 2.88 log
HCV genotype 1 [2]
  drop in HCV RNA from the baseline value: approximately 2 log

## N[C@H](CCC(=O)N[C@@H](Cc1c[nH]c2ccccc12)C(=O)O)C(=O)O [SCV-07, γ-D-glutamyl-L-tryptophan]
Pichinde virus
  survival: increased survival
Thymocyte and lymphocyte
  Con-A-induced thymocyte and lymphocyte proliferation: increases
[3]
  immunostimulatory effect: strong immunostimulatory effect
Spleen lymphocytes
  Con-A-induced interleukin-2 (IL-2) production and IL-2 receptor expression by spleen lymphocytes: increases
[4]
  Th2 cytokines IL-4 and IL-10: decreasing
  production of the Th1 cytokines IFN-g and IL-2: increases
STAT-3
  STAT-3 dependent signaling / STAT3 activity: inhibition; also recorded: inhibit
[5]; Cohort 1, 0.01 mg/kg
  HCV viral load response: no responses
[5]; Cohort 2, 0.10 mg/kg, day 14 follow up visit
  subjects with decrease in viral load and increase in neopterin: 2 subjects
[5]; Cohort 3, 1.0 mg/kg (interim), 7 daily injections, single responding subject, 30-day visit
  HCV viral load (log10 decrease) Day 30: 1.2 log10
[5]; Cohort 3, one of 4 subjects at the 30-day visit
  drop in HCV: 1.2 log
Bone marrow cells
  expression of Thy-1.2 on bone marrow cells: stimulates expression
neopterin
  Neopterin (nmol/L) Day 30: 33 nmol/L
Sheep red blood cells
  immunostimulatory effect: strong immunostimulatory effect
[6]
  survival: increased survival
Herpes virus HSV-2
  recurrence: decreased recurrence
HCV [7]
  response against HCV: improved response
[8]; all 3 dose groups
  SAEs reported: No SAEs were reported
  discontinuation of treatment due to AEs: no subject had to discontinue treatment due to AEs
  tolerability: well tolerated
[8]; any of the subjects
  changes in ALT from baseline: No significant changes

## CC(C)C(=O)OC[C@@]1(N=[N+]=[N-])O[C@@H](n2ccc(N)nc2=O)[C@H](OC(=O)C(C)C)[C@@H]1OC(=O)C(C)C [R1626]
HCV genotype 1 [9]; 500 mg twice daily for 14 days
  Mean HCV viral reduction: 0.3 log 10
  median HCV viral reduction: 0.2 log 10
HCV genotype 1 [9]; [14]
  Mean HCV viral reduction: 1.2 log 10
  median HCV viral reduction: 0.8 log 10
HCV genotype 1 [9]; [15]
  Mean HCV viral reduction: 2.6 log 10
  median HCV viral reduction: 2.7 log 10
HCV genotype 1 [9]; [16]
  Mean HCV viral reduction: 3.7 log 10
  median HCV viral reduction: 4.1 log 10
HCV genotype 1 [10]
  reduction in HCV RNA: approximately 1.2 log

## CNC(=O)c1c(-c2ccc(F)cc2)oc2cc(N(CCO)S(C)(=O)=O)c(C3CC3)cc12 [HCV-796]
HCV [11]
  drop in the HCV RNA viral load: ~1.2 log

## CCCCCOc1ccc(NC(=S)NC(=O)c2cccnc2)cc1C(F)(F)F [ACH-806]
HCV [12]
  drop in HCV RNA: 2.38 log

## COc1ccc2c(O[C@@H]3C[C@H]4C(=O)N[C@]5(C(=O)O)C[C@H]5/C=C\CCCCC[C@H](NC(=O)OC5CCCC5)C(=O)N4C3)cc(-c3csc(NC(C)C)n3)nc2c1 [BILN-2061]
HCV [13]; HCV genotype 1
  antiviral activity, HCV genotype 1: potent antiviral activity
HCV [13]; HCV genotype 2 and 3
  virologic response, HCV genotype 2 and 3 patients: less pronounced and more variable
HCV [13]; phase 1
  time of viral load reduction: ≤ 48 h

Reference: US20110200558A1, “Treatment or Prevention of Hepatitis C with Immunomodulator Compounds” (priority 2008, published 2011)
